Experimental data published in publication PMC6422358 (Cell, 2018).

Biological target: GST-CCNT1 (AA 1–300) (Homo sapiens, UniProt O60563)
Assay: AlphaLISA disruption of CCNT1-AFF4 peptide interaction
Type: binding

Chain of GST-CCNT1 (AA 1–300) (O60563 1-300): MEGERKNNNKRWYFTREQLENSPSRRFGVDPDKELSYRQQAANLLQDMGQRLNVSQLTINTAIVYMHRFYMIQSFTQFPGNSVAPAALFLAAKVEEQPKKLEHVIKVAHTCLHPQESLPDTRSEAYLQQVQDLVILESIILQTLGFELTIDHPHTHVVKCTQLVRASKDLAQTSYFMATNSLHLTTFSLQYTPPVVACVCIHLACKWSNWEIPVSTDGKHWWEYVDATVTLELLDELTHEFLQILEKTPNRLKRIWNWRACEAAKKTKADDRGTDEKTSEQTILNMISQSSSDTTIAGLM

COc1cccc(C(=O)/C=C(\O)C(=O)Nc2cc(Cl)ccc2C)c1 [4a, (2Z)-N-(5-Chloro-2-methylphenyl)-2-hydroxy-4-(3-methoxyphenyl)-4-oxo-2butenamide]
Ki: 3.48 µM
